Experiment [1] relates to Mia Paca-2 cells. As to the kind of experiment: MTT cell viability assay in Mia Paca-2 cells. It is filed as cell-based. The conditions noted are these: Homo sapiens, MIA PaCa-2; MTT assay, 72 h incubation, mean ± SD; read-out: IC50 Mia Paca-2. On the procedure: (§1) The MTT assay was used to assess the effect of the compounds on cell viability. For this purpose, A375 (1500 cells per well), BJ (10 000 cells per well), Caco-2 (4000 cells per well), HCT116 (3000 cells per well), Mia Paca-2 (2000 cells per well), SW480 (6000 cells per well), and SW620 (8000 cells per well) cells were seeded in 96-well plates and incubated for 24 h. Subsequently, the culture medium was switched with a new medium containing DMSO (control) or the compound at a specified concentration. Following a 72 h incubation period, the supernatant was aspirated, and 100 μL of a mixture (1 : 1) of filtered MTT solution (1 mg per mL PBS) and FBS-free medium was added. The plates were then incubated for 1 h at 37 °C. After this time, the supernatant was aspirated, and the formazan crystals were dissolved in 100 μL of DMSO in each well. Relative cell viability was calculated by measuring absorbance at 570 nm using a Benchmark Plus Microplate Reader (Bio-Rad Laboratories, Hercules, CA, USA). Results are presented as the mean ± standard deviation (SD) of IC50 values, determined by nonlinear regression analysis of dose–response curves (log(inhibitor) vs. response with variable slope (four parameters)) using GraphPad Prism 9 software (GraphPad Software, San Diego, CA, USA).
Background: Tetrazolium assays rely on reduction of a dye to a coloured formazan, in cell work by metabolically active cells.

Experiment [2] has as its system HCT116 cells. Put plainly: MTT cell viability assay in HCT116 cells. The experiment is classed as cell-based. The conditions noted are these: for IC50: Homo sapiens, read-out: IC50 HCT116. On the procedure:
The MTT assay was used to assess the effect of the compounds on cell viability. […] Subsequently, the culture medium was switched with a new medium containing DMSO (control) or the compound at a specified concentration. […] The plates were then incubated for 1 h at 37 °C. After this time, the supernatant was aspirated, and the formazan crystals were dissolved in 100 μL of DMSO in each well. Relative cell viability was calculated by measuring absorbance at 570 nm using a Benchmark Plus Microplate Reader (Bio-Rad Laboratories, Hercules, CA, USA).

Experiment [3] concerns SW620 cells. As to the kind of experiment: MTT cell viability assay in SW620 cells. It is filed as cell-based. The conditions noted are these: Homo sapiens, SW-620; MTT assay, 72 h incubation, mean ± SD; read-out: IC50 SW620. On the procedure:
as §1

For a further experiment, the system named is Caco-2 cells. As to the kind of experiment: MTT cell viability assay in Caco-2 cells. It is filed as cell-based. The conditions noted are these: Homo sapiens, Caco-2; MTT assay, 72 h incubation, mean ± SD; read-out: IC50 Caco-2. On the procedure:
as §1

Experiment [4] deals with HCT116 cells. The conditions noted are these: MTT assay, 72 h; previously determined by the research team, ref [26]; cited from earlier work.
For the next experiment, the system named is BJ cells. More on the design: method as in doi:10.1039/C5RA19120C. The conditions noted are these: MTT assay, previously determined by the research team, ref [39]; read-out: IC50 BJ (non-tumoral); cited from earlier work.
For experiment [5], the system named is SW620 cells. More on the design: method as in PMID 31909511. The conditions noted are these: MTT assay, previously determined by the research team, ref [35]; cited from earlier work.
The test system of experiment [6] is A375 cells. More on the design: method as in PMID 23229057. The conditions noted are these: MTT assay, from the literature, ref [38]; cited from earlier work.
Experiment [7] deals with Mia Paca-2 cells. The arrangement: method as in PMID 18007390. The conditions noted are these: MTT assay, from the literature, ref [37]; cited from earlier work.
Another experiment concerns SW480 cells. As to the kind of experiment: MTT cell viability assay in SW480 cells. It is filed as cell-based. The procedure: as §1
The test system of experiment [8] is A375 cells. As to the kind of experiment: MTT cell viability assay in A375 cells. The conditions noted are these: Homo sapiens, A-375; MTT assay, 72 h incubation, mean ± SD; read-out: IC50 A375. It is filed as cell-based. On the procedure:
as §1

The mark [9] stands for this setting: HCT-116, MTT assay, 72 h incubation, mean ± SD.
Where [10] appears, read: SW480 cells, ratio of IC50 values.

SMILES strings stand for the structures. Where two headings read alike, the source gives them in different places.

As for `CC(C)c1cc2c(c(O)c1O)[C@@]1(C(=O)O)CCCC(C)(C)[C@@H]1CC2` [CA 1, Carnosic acid], the 50% inhibitory concentration (IC50) in the experiment on Mia Paca-2 cells [1] was found to be 21 ± 1 µM; in the experiment with HCT116 cells [2] (setting [9]) it was 42 ± 4 µM; in the experiment with SW620 cells [3] it was 18 ± 2 µM; in the experiment on Caco-2 cells it was 34 ± 2 µM.

As for `N.N.[Cl][Pt][Cl]` [Cisplatin], the IC50 with HCT116 cells [4] is 21 ± 1 µM; in the experiment on BJ cells, 10 ± 2 µM; in the experiment on SW620 cells [5], 1400 ± 500 nM; with A375 cells [6], 3000 ± 1000 nM; in the experiment on Mia Paca-2 cells [7], 5 ± 1 µM.

Consider `CC(=O)Oc1c(C(C)C)cc2c(c1OC(C)=O)[C@@]1(C(=O)O)CCCC(C)(C)[C@@H]1CC2` [Compound 2, (4aR,10aS)-5,6-Bis(acetyloxy)-1,1-dimethyl-7-(propan-2-yl)1,3,4,9,10,10a-hexahydrophenanthrene-4a(2H)-carboxylic acid], for which the IC50 in the experiment with HCT116 cells [2] (setting [9]) turned out to be 44 ± 4 µM.

With `CCOC(=O)[C@]12CCCC(C)(C)[C@@H]1CCc1cc(C(C)C)c(OC(C)=O)c(OC(C)=O)c12` [Compound 4, Ethyl(4aR,10aS)-5,6-bis(acetyloxy)-1,1-dimethyl-7-(propan-2-yl)-1,3,4,9,10,10a-hexahydrophenanthrene-4a(2H)-carboxylate], the 50% inhibitory concentration (IC50) with HCT116 cells [2] (HCT-116, 72 h) is 25 ± 2 µM.

For `CCCCOC(=O)[C@]12CCCC(C)(C)[C@@H]1CCc1cc(C(C)C)c(OC(C)=O)c(OC(C)=O)c12` [Compound 5, Butyl(4aR,10aS)-5,6-bis(acetyloxy)-1,1-dimethyl-7-(propan-2-yl)-1,3,4,9,10,10a-hexahydrophenanthrene-4a(2H)-carboxylate], the IC50 in the experiment with HCT116 cells [2] (setting [9]) stood at 26 ± 1 µM.

On to `COC(=O)[C@]12CCCC(C)(C)[C@@H]1CC(=O)c1cc(C(C)C)c(OC(C)=O)c(OC(C)=O)c12` [Compound 6, Methyl(4aR,10aS)-5,6-bis(acetyloxy)-1,1-dimethyl-9-oxo-7-(propan-2-yl)-1,3,4,9,10,10a-hexahydrophenanthrene-4a(2H)-carboxylate], for which the IC50 in the experiment with HCT116 cells [2] (setting [9]) came out at 36 ± 1 µM.

With `CCOC(=O)[C@]12CCCC(C)(C)[C@@H]1CC(=O)c1cc(C(C)C)c(OC(C)=O)c(OC(C)=O)c12` [Compound 7, Ethyl(4aR,10aS)-5,6-bis(acetyloxy)-1,1-dimethyl-9-oxo-7-(propan-2-yl)-1,3,4,9,10,10a-hexahydrophenanthrene-4a(2H)-carboxylate], the IC50 in the experiment on HCT116 cells [2] (setting [9]) was 31 ± 3 µM.

With `CCCCOC(=O)[C@]12CCCC(C)(C)[C@@H]1CC(=O)c1cc(C(C)C)c(OC(C)=O)c(OC(C)=O)c12` [Compound 8, Butyl(4aR,10aS)-5,6-bis(acetyloxy)-1,1-dimethyl-9-oxo-7-(propan-2-yl)-1,3,4,9,10,10a-hexahydrophenanthrene-4a(2H)-carboxylate], the concentration for half-maximal inhibition (IC50) in the experiment on Mia Paca-2 cells [1] was 12 ± 1 µM; with HCT116 cells [2] (setting [9]), 15.1 ± 0.7 µM; in the experiment with SW620 cells [3] it was 11 ± 1 µM; with Caco-2 cells, 12.7 ± 0.3 µM; in the experiment with SW480 cells (Homo sapiens, SW480, MTT assay, 72 h incubation, mean ± SD, read-out: IC50 SW480), 6.8 ± 0.6 µM; in the experiment on A375 cells [8] it was 8.1 ± 0.5 µM. Moreover, the “fold more active than cisplatin” value in the experiment on HCT116 cells [2] (HCT116 cells, ratio of IC50 values) amounted to 1.4 fold; with SW480 cells (setting [10]) it was 2.2 fold. For the same molecule, the “fold more potent than CA 1” value with SW480 cells (setting [10]) stood at 3.2 fold.

For `COC(=O)[C@]12CCCC(C)(C)[C@@H]1CC(O)c1cc(C(C)C)c(OC(C)=O)c(OC(C)=O)c12` (stereo partly drawn) [Compound 9, Methyl(4aR,10aS)-5,6-bis(acetyloxy)-9-hydroxy-1,1-dimethyl-7-(propan-2-yl)-1,3,4,9,10,10a-hexahydrophenanthrene-4a(2H)-carboxylate], the half-maximal inhibitory concentration (IC50) in the experiment on HCT116 cells [2] (setting [9]) came to 37 ± 3 µM.

For `CCOC(=O)[C@]12CCCC(C)(C)[C@@H]1CC(O)c1cc(C(C)C)c(OC(C)=O)c(OC(C)=O)c12` (stereo partly drawn) [Compound 10, Ethyl(4aR,10aS)-5,6-bis(acetyloxy)-9-hydroxy-1,1-dimethyl-7-(propan-2-yl)-1,3,4,9,10,10a-hexahydrophenanthrene-4a(2H)-carboxylate], in the experiment with HCT116 cells [2] (setting [9]), the IC50 came out at 34 ± 3 µM.

For `CCCCOC(=O)[C@]12CCCC(C)(C)[C@@H]1CC(O)c1cc(C(C)C)c(OC(C)=O)c(OC(C)=O)c12` (stereo partly drawn) [Compound 11, Butyl(4aR,10aS)-5,6-bis(acetyloxy)-9-hydroxy-1,1-dimethyl-7-(propan-2-yl)-1,3,4,9,10,10a-hexahydrophenanthrene-4a(2H)-carboxylate], the IC50 in the experiment with HCT116 cells [2] (setting [9]) is 27 ± 4 µM.

`CC(=O)Oc1c(C(C)C)cc2c(c1OC(C)=O)[C@@]1(N=C=O)CCCC(C)(C)[C@@H]1CC2` [Compound 14, (4bR,8aS)-4b-Isocyanato-8,8-dimethyl-2-(propan-2-yl)-4b,5,6,7,8,8a,9,10-octahydrophenanthrene-3,4-diyl diacetate]: the IC50 in the experiment with HCT116 cells [2] (HCT-116, 72 h) amounted to 28 ± 3 µM.

Consider `COC(=O)N[C@]12CCCC(C)(C)[C@@H]1CCc1cc(C(C)C)c(OC(C)=O)c(OC(C)=O)c12` [Compound 15, (4bR,8aS)-4b-[(Methoxycarbonyl)amino]-8,8-dimethyl-2-(propan-2-yl)-4b,5,6,7,8,8a,9,10-octahydrophenanthrene-3,4-diyl diacetate], for which, in the experiment on HCT116 cells [2] (HCT-116, 72 h), the IC50 came to 55 ± 5 µM.

As for `CCOC(=O)N[C@]12CCCC(C)(C)[C@@H]1CCc1cc(C(C)C)c(OC(C)=O)c(OC(C)=O)c12` [Compound 16, (4bR,8aS)-4b-[(Ethoxycarbonyl)amino]-8,8-dimethyl-2-(propan-2-yl)-4b,5,6,7,8,8a,9,10-octahydrophenanthrene-3,4-diyl diacetate], the IC50 with HCT116 cells [2] (HCT-116, 72 h) is 37 ± 2 µM.

On to `COC(=O)N[C@]12CCCC(C)(C)[C@@H]1CC(=O)c1cc(C(C)C)c(OC(C)=O)c(OC(C)=O)c12` [Compound 18, (4bR,8aS)-4b-[(Methoxycarbonyl)amino]-8,8-dimethyl-10-oxo-2-(propan-2-yl)-4b,5,6,7,8,8a,9,10-octahydrophenanthrene-3,4-diyl diacetate], for which the 50% inhibitory concentration (IC50) in the experiment on HCT116 cells [2] (HCT-116, 72 h) was greater than 50 µM.

As for `CCOC(=O)N[C@]12CCCC(C)(C)[C@@H]1CC(=O)c1cc(C(C)C)c(OC(C)=O)c(OC(C)=O)c12` [Compound 19, (4bR,8aS)-4b-[(Ethoxycarbonyl)amino]-8,8-dimethyl-10-oxo-2-(propan-2-yl)-4b,5,6,7,8,8a,9,10-octahydrophenanthrene-3,4-diyl diacetate], the IC50 in the experiment on HCT116 cells [2] (HCT-116, 72 h) amounted to 48.2 ± 0.1 µM.

For orientation: IC50 means the concentration needed to halve the response being measured.
